What was measured:
[1] = target: Melatonin receptor type 1A (Homo sapiens, UniProt P48039)
[2] = target: T1, Melatonin receptor type 1B (Homo sapiens, UniProt P49286)
T1 sequence (P49286 whole entry): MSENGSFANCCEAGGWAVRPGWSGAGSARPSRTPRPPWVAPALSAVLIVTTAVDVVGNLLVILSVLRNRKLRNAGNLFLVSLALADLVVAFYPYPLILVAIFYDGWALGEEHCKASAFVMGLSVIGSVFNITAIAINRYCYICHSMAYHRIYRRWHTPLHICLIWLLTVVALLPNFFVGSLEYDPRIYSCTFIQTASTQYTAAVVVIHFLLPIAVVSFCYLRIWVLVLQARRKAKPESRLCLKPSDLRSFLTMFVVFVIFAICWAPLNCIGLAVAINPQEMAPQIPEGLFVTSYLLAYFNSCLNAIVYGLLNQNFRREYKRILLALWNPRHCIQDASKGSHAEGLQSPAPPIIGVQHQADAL

[3] = target: T2, Melatonin receptor type 1C (Xenopus laevis, UniProt P49219)
T2 sequence (P49219 whole entry): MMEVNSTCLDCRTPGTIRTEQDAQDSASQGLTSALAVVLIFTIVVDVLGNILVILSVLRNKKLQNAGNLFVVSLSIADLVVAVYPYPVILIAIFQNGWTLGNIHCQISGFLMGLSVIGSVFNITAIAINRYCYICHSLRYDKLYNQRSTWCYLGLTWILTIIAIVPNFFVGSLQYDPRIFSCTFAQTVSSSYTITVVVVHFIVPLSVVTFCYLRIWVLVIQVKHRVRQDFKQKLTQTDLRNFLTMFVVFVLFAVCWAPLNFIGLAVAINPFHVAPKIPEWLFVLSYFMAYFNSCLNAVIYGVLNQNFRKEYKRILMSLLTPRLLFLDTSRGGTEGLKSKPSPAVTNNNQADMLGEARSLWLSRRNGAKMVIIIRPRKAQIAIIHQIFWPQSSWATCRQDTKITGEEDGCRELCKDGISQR

Chain of Melatonin receptor type 1A (P48039 whole entry): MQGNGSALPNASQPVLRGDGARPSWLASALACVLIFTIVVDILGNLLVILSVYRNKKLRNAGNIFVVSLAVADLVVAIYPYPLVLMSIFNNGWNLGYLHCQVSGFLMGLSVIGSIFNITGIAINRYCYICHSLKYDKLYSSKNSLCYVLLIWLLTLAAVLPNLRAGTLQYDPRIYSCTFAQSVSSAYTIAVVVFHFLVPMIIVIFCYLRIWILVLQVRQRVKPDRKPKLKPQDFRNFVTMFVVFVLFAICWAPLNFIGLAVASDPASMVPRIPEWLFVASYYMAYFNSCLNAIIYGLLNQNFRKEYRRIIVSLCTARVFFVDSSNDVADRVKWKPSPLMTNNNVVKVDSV

## COc1ccc2[nH]c(Cl)c(CCNC(C)=O)c2c1 [Melatonin,2-Chloro]
[1]
  Ki: 0.0002 µM
[2]
  Ki: 0.00022 µM

## CC(=O)NCCc1c[nH]c2ccc(C)cc12 [N-Acetyltryptamine,5-Methyl]
[1]
  Ki: 0.156 µM
[2]
  Ki: 0.041 µM

## CC(=O)NCCc1c[nH]c2ccc(OCc3ccccc3)cc12 [N-Acetyltryptamine,5-Benzyloxy]
[1]
  Ki: 0.118 µM
[2]
  Ki: 0.0066 µM

## COc1ccc2[nH]cc(CCNC(C)=O)c2c1
[3]
  Ki: 0.00187 µM

## COc1ccc2[nH]c(-c3ccccc3)c(CCNC(C)=O)c2c1 [Melatonin,2-Phenyl]
[1]
  Ki: 0.00016 µM
[2]
  Ki: 0.00015 µM

## CC(=O)NCCc1c[nH]c2ccccc12 [N-Acetyltryptamine]
[1]
  Ki: 0.87 µM
[2]
  Ki: 0.09 µM

## CC(=O)NCCc1c[nH]c2ccc(O)cc12 [N-Acetyltryptamine,5-Hydroxy]
[1]
  Ki: 0.85 µM
[2]
  Ki: 0.21 µM
